Among the data in patent US11739074B2, “Ras inhibitors” (Revolution Medicines, Inc., priority 2019, dated 2023) are EC50 and IC50 values, retold here.

The structures appear in SMILES notation. Where two headings read alike, the source gives them in different places. A value given as a limit tells only on which side of the number the result lay.

What all share (format): cell-based
Test [1] has as its system AsPC-1 (K-Ras G12D). Briefly: Potency assay: pERK in AsPC-1 cells. The settings on record: Homo sapiens.
Test [2] deals with NCI-H358 (K-Ras G12C). Briefly: CellTiter-Glo cell viability assay, H358. The settings on record: Homo sapiens, NCI-H358, 120 h. As for the experimental part: Determination of Cell Viability in RAS Mutant Cancer Cell Lines
Protocol: CellTiter-Glo® Cell Viability Assay
Note—The following protocol describes a procedure for monitoring cell viability of K-Ras mutant cancer cell lines in response to a compound of the invention. Other RAS isoforms may be employed, though the number of cells to be seeded will vary based on cell line used.
Test compounds (132.5 nL) were directly dispensed into the assay plates containing cells. […] On day 5, assay plates and their contents were equilibrated to room temperature for approximately 30 minutes. […] Luminescence was measured using the PerkinElmer Enspire. Data were normalized by the following: (Sample signal/Avg. DMSO)*100. The data were fit using a four-parameter logistic fit.
On the technique in general: In ATP-based viability assays light output follows the ATP content of the culture.

The test system of test [3] is AsPC-1 (K-Ras G12D). Briefly: CellTiter-Glo cell viability assay, AsPC-1. The following applies: Homo sapiens, ASPC1, 120 h. The method, boiled down:
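Compounds dispensed directly onto seeded AsPC-1 (K-Ras G12D) or NCI-H358 (K-Ras G12C) cells; CellTiter-Glo luminescence read on day 5 after ~30 min equilibration to room temperature. Signal normalized to DMSO average (%) and fit by four-parameter logistic.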

The mark [4] stands for this setting: ASPC1, AsPC-1 cells, K-Ras G12D, read-out: pERK EC50 (AsPC-1 KRAS G12D).
Setting [5] is: NCI-H358, K-Ras G12C, 5-day treatment, read-out: H358 Cell Viability IC50.
[6] abbreviates: AsPC-1, K-Ras G12D, 5-day treatment, read-out: AsPC-1 Cell Viability IC50.
The mark [7] stands for this setting: ASPC1, read-out: pERK EC50 (AsPC-1 KRAS G12D).
Setting [8] is: read-out: H358 Cell Viability IC50, NCI-H358, K-Ras G12C, 5-day treatment.
Where [9] appears, read: read-out: AsPC-1 Cell Viability IC50, AsPC-1, K-Ras G12D, 5-day treatment.

As to `CCn1c(-c2cccnc2[C@H](C)OC)c2c3cc(ccc31)-c1cc(O)cc(c1)C[C@H](NC(=O)[C@H](C(C)C)N(C)C(=O)[C@@H]1CO[C@H](C)CN1C(=O)[C@@H]1CN1)C(=O)N1CCC[C@H](N1)C(=O)OCC(C)(C)C2` [Compound 249], the concentration for a half-maximal effect (EC50) (usually the concentration that produces a half-maximal response) in test [1] (setting [4]) is under 5000 nM. Moreover, the IC50 in test [2] (setting [5]) and in test [3] (setting [6]) was 10 to 100 nM in each case.

Turning to `CCn1c(-c2cccnc2[C@H](C)OC)c2c3cc(ccc31)-c1cc(O)cc(c1)C[C@H](NC(=O)[C@H](C(C)C)N(C)C(=O)CN(C)C(=O)[C@@H]1N[C@H]1C1COC1)C(=O)N1CCC[C@H](N1)C(=O)OCC(C)(C)C2` [Compound 283], the EC50 in test [1] (setting [7]) was under 5000 nM. Moreover, the figures for the IC50 in test [2] (setting [8]) and in test [3] (setting [9]) were 10 to 100 nM and 100 to 1000 nM, respectively.

As for `CCn1c(-c2cccnc2[C@H](C)OC)c2c3cc(ccc31)-c1cc(O)cc(c1)C[C@H](NC(=O)[C@H](C1CCCC1)N(C)C(=O)CN(C)C(=O)[C@H]1[C@@H](C3CC3)N1CCCOC)C(=O)N1CCC[C@H](N1)C(=O)OCC(C)(C)C2` (stereo partly drawn) [Compound 317], the 50% effective concentration (EC50) in test [1] (setting [4]) is under 5000 nM. For the same molecule, the half-maximal inhibitory concentration (IC50) in test [2] (setting [5]) and in test [3] (setting [6]) was 10 to 100 nM each time.

As for `CCn1c(-c2cccnc2[C@H](C)OC)c2c3cc(ccc31)-c1cc(O)cc(c1)C[C@H](NC(=O)[C@H](C(C)C)N(C)C(=O)CN(C)C(=O)[C@H]1CN1CC(=O)N(C)C)C(=O)N1CCC[C@H](N1)C(=O)OCC(C)(C)C2` (stereo partly drawn) [Compound 270], the EC50 in test [1] (setting [7]) is under 5000 nM. In addition, the IC50 – broadly, the point on the concentration scale where inhibition reaches its midpoint – in test [2] (setting [8]) was in the range of 10 to 100 nM; in test [3] (setting [9]) it was 100 to 1000 nM.

With `CCn1c(-c2cnccc2COC)c2c3cc(ccc31)-c1cc(O)cc(c1)C[C@H](NC(=O)[C@H](C(C)C)N(C)C(=O)CN(C)C(=O)[C@@H]1N[C@@H]1C1CC1)C(=O)N1CCC[C@H](N1)C(=O)OCC(C)(C)C2` [Compound 103], the EC50 in test [1] (setting [7]) was under 5000 nM. Also, the IC50 in test [2] (setting [8]) and in test [3] (setting [9]) was 100 to 1000 nM throughout.

For the molecule `CCn1c(-c2cccnc2[C@H](C)OC)c2c3cc(ccc31)-c1cc(O)cc(c1)C[C@H](NC(=O)[C@H](C(C)C)N(C)C(=O)[C@@]1(C)CCCN1C(=O)[C@H]1CN1)C(=O)N1CCC[C@H](N1)C(=O)OCC(C)(C)C2` [Compound 239], in test [1] (setting [4]), the concentration for a half-maximal effect (EC50) is under 5000 nM. Besides, the IC50 in test [2] (setting [5]) lay within 10 to 100 nM; in test [3] (setting [6]), 100 to 1000 nM.

Regarding `CCn1c(-c2cccnc2[C@H](C)OC)c2c3cc(ccc31)-c1cc(O)cc(c1)C[C@H](NC(=O)[C@H](C(C)C)N(C)C(=O)c1ncc(NC(=O)[C@@H]3CN3)n1C)C(=O)N1CCC[C@H](N1)C(=O)OCC(C)(C)C2` [Compound 83], the EC50 in test [1] (setting [4]) was under 5000 nM. The IC50 was in the range of 10 to 100 nM in test [2] (setting [5]) and 1000 to 10000 nM in test [3] (setting [6]).

In the case of `CCn1c(-c2cccnc2[C@H](C)OC)c2c3cc(ccc31)-c1cc(O)cc(c1)C[C@H](NC(=O)[C@H](C(C)C)N(C)C(=O)[C@]1(C)CCCN1C(=O)[C@H]1CN1)C(=O)N1CCC[C@H](N1)C(=O)OCC(C)(C)C2` [Compound 243], the EC50 in test [1] (setting [4]) is under 5000 nM. Further, the IC50 in test [2] (setting [5]) and in test [3] (setting [6]) was 100 to 1000 nM each time.

For `CCn1c(-c2cccnc2[C@H](C)OC)c2c3cc(ccc31)-c1cc(O)cc(c1)C[C@H](NC(=O)[C@H](C(C)C)N(C)C(=O)CN(C)C(=O)[C@@H]1CN1CCOC)C(=O)N1CCC[C@H](N1)C(=O)OCC(C)(C)C2` (stereo partly drawn) [Compound 160], the EC50 in test [1] (setting [7]) was under 5000 nM. Further, the 50% inhibitory concentration (IC50) in test [2] (setting [8]) was under 10 nM; in test [3] (setting [9]), 100 to 1000 nM.

`CCn1c(-c2cccnc2[C@H](C)OC)c2c3cc(ccc31)-c1csc(n1)C[C@H](NC(=O)[C@H](C(C)C)N(C)C(=O)N1CCN(C(=O)[C@@H]3CN3)[C@@H](C)C1)C(=O)N1CCC[C@H](N1)C(=O)OCC(C)(C)C2` [Compound 298]: the EC50 in test [1] (setting [4]) was under 5000 nM. The figures for the IC50 in test [2] (setting [5]) and in test [3] (setting [6]) were 10 to 100 nM and 100 to 1000 nM, respectively.
